ChEMBL document CHEMBL3745645, “Synthesis, in vitro antitumor activity, dihydrofolate reductase inhibition, DNA intercalation and structure-activity relationship studies of 1,3,5-triazine analogues” (Bioorg Med Chem Lett, 2016)
Activity calls are given as the source filed them. No cut-off for these calls is given here.

Legend:
MCF7 [1] = test: Cytotoxicity against human MCF7 cells after 48 hrs by SRB assay; assay type: functional; conditions: MCF7, 48 h, pooled result: one value given for 6 cell lines, strains, targets or settings
[2] = Cytotoxicity against human IGROV1 cells after 48 hrs by SRB assay; assay type: functional; conditions: IGROV-1, 48 h, pooled result: one value given for 7 cell lines, strains, targets or settings
KM12 = test: Cytotoxicity against human KM12 cells at 10 uM after 48 hrs by SRB assay; assay type: functional; conditions: KM12, 48 h, read-out: GI
NCI-H522 = test: Cytotoxicity against human NCI-H522 cells at 10 uM after 48 hrs by SRB assay; assay type: functional; conditions: NCI-H522, 48 h, read-out: GI
[3] = Cytotoxicity against human HOP62 cells at 10 uM after 48 hrs by SRB assay; assay type: functional; conditions: HOP-62, 48 h, read-out: GI
A549 [4] = test: Cytotoxicity against human A549 cells after 48 hrs by SRB assay; assay type: functional; conditions: A549, 48 h, pooled result: one value given for 8 cell lines, strains, targets or settings
[5] = Cytotoxicity against human SW620 cells at 10 uM after 48 hrs by SRB assay; assay type: functional; conditions: SW-620, 48 h, read-out: GI
[6] = Cytotoxicity against human HL-60(TB) cells after 48 hrs by SRB assay; assay type: functional; conditions: HL-60, 48 h, read-out: LC50 (the source's name)
ACHN = test: Cytotoxicity against human ACHN cells at 10 uM after 48 hrs by SRB assay; assay type: functional; conditions: read-out: GI
[7] = Cytotoxicity against human MOLT4 cells at 10 uM after 48 hrs by SRB assay; assay type: functional; conditions: MOLT-4, 48 h, read-out: GI
Malme-3M = test: Cytotoxicity against human MALME-3M cells at 10 uM after 48 hrs by SRB assay; assay type: functional; conditions: read-out: GI
[8] = Cytotoxicity against human LOXIMVI cells at 10 uM after 48 hrs by SRB assay; assay type: functional; conditions: LOX IMVI, read-out: GI
MCF7 [9] = test: Cytotoxicity against human MCF7 cells at 10 uM after 48 hrs by SRB assay; assay type: functional; conditions: MCF7, 48 h, read-out: GI
SR [10] = test: Cytotoxicity against human SR cells after 48 hrs by SRB assay; assay type: functional
MDA-MB-231 = test: Cytotoxicity against human MDA-MB-231 cells at 10 uM after 48 hrs by SRB assay; assay type: functional; conditions: MDA-MB-231, 48 h, read-out: GI
[11] = Cytotoxicity against human DU145 cells at 10 uM after 48 hrs by SRB assay; assay type: functional; conditions: DU-145, 48 h, read-out: GI
SN12C = test: Cytotoxicity against human SN12C cells at 10 uM after 48 hrs by SRB assay; assay type: functional; conditions: read-out: GI
[12] = Cytotoxicity against human Caki1 cells at 10 uM after 48 hrs by SRB assay; assay type: functional; conditions: CAKI-1, 48 h, read-out: GI
[13] = Cytotoxicity against human OVCAR5 cells at 10 uM after 48 hrs by SRB assay; assay type: functional; conditions: OVCAR-5, 48 h, read-out: GI
U-251 = test: Cytotoxicity against human U251 cells at 10 uM after 48 hrs by SRB assay; assay type: functional; conditions: U-251, 48 h, read-out: GI
NCI-H226 = test: Cytotoxicity against human NCI-H226 cells at 10 uM after 48 hrs by SRB assay; assay type: functional; conditions: NCI-H226, 48 h, read-out: GI
[14] = Cytotoxicity against human IGROV1 cells at 10 uM after 48 hrs by SRB assay; assay type: functional; conditions: IGROV-1, 48 h, read-out: GI
[15] = Cytotoxicity against human PC3 cells after 48 hrs by SRB assay; assay type: functional; conditions: PC-3, 48 h
CCRF-CEM = test: Cytotoxicity against human CCRF-CEM cells after 48 hrs by SRB assay; assay type: functional
[16] = Cytotoxicity against human SF268 cells after 48 hrs by SRB assay; assay type: functional; conditions: SF-268, 48 h, pooled result: one value given for 6 cell lines, strains, targets or settings
A549 [17] = test: Cytotoxicity against human A549 cells at 10 uM after 48 hrs by SRB assay; assay type: functional; conditions: A549, 48 h, read-out: GI
[18] = Cytotoxicity against human HOP92 cells at 10 uM after 48 hrs by SRB assay; assay type: functional; conditions: HOP-92, 48 h, read-out: GI
SK-MEL-28 = test: Cytotoxicity against human SK-MEL-28 cells at 10 uM after 48 hrs by SRB assay; assay type: functional; conditions: SK-MEL-28, 48 h, read-out: GI
Calf thymus DNA [19] = test: Binding affinity to calf thymus DNA by UV-vis spectrometric analysis; assay type: nucleic-acid assay; conditions: Bos taurus
Calf thymus DNA [20] = test: Binding affinity to calf thymus DNA by fluorescence spectrophotometric analysis; assay type: nucleic-acid assay; conditions: Bos taurus
[21] = Cytotoxicity against human COLO205 cells at 10 uM after 48 hrs by SRB assay; assay type: functional; conditions: COLO 205, 48 h, read-out: GI
[22] = Cytotoxicity against human SNB75 cells at 10 uM after 48 hrs by SRB assay; assay type: functional; conditions: SNB-75, 48 h, read-out: GI
[23] = Cytotoxicity against human LOXIMVI cells after 48 hrs by SRB assay; assay type: functional; conditions: LOX IMVI, pooled result: one value given for 9 cell lines, strains, targets or settings
M14 = test: Cytotoxicity against human M14 cells at 10 uM after 48 hrs by SRB assay; assay type: functional; conditions: M14, 48 h, read-out: GI
[24] = Cytotoxicity against human RPMI8226 cells after 48 hrs by SRB assay; assay type: functional; conditions: RPMI-8226, 48 h, read-out: LC50 (the source's name)
[25] = Cytotoxicity against human UO31 cells at 10 uM after 48 hrs by SRB assay; assay type: functional; conditions: UO-31, 48 h, read-out: GI
A498 = test: Cytotoxicity against human A498 cells at 10 uM after 48 hrs by SRB assay; assay type: functional; conditions: A498, 48 h, read-out: GI
[26] = Cytotoxicity against human MOLT4 cells after 48 hrs by SRB assay; assay type: functional; conditions: MOLT-4, 48 h, read-out: LC50 (the source's name)
[27] = Cytotoxicity against human SF539 cells at 10 uM after 48 hrs by SRB assay; assay type: functional; conditions: SF-539, 48 h, read-out: GI
T47D = test: Cytotoxicity against human T47D cells at 10 uM after 48 hrs by SRB assay; assay type: functional; conditions: read-out: GI
SK-MEL-5 = test: Cytotoxicity against human SK-MEL-5 cells at 10 uM after 48 hrs by SRB assay; assay type: functional; conditions: SK-MEL-5, 48 h, read-out: GI
[28] = Cytotoxicity against human SNB19 cells at 10 uM after 48 hrs by SRB assay; assay type: functional; conditions: SNB-19, 48 h, read-out: GI
SR [29] = test: Cytotoxicity against human SR cells at 10 uM after 48 hrs by SRB assay; assay type: functional
[30] = pooled result: one value given for 2 cell lines, strains, targets or settings
[31] = pooled result: one value given for 6 cell lines, strains, targets or settings

Cc1nc2cc(Nc3nc(Nc4ccc(F)cc4)nc(-c4ccc(Cl)cc4)n3)ccc2n1Cc1ccccc1
GI50 (MCF7 [1]): 6.46 µM
LC50 (concentration killing 50% of cells) (MCF7 [1]): > 100 µM
TGI (MCF7 [1]): 50.8 µM
GI50 [2]: 6.1 µM
LC50 (concentration killing 50% of cells) [2]: 65.4 µM
TGI [2]: 24.4 µM
inhibition of growth at 10 µM (KM12): 62.8%
inhibition of growth at 10 µM (NCI-H522): 17.2%
inhibition of growth at 10 µM [3]: 19.4%
GI50 (A549 [4]): 8.37 µM
LC50 (A549 [4]): 83.8 µM
TGI (A549 [4]): 38.6 µM
inhibition of growth at 10 µM [5]: 31.9%
CC50 [6]: > 100 µM
inhibition of growth at 10 µM (ACHN): 28.4%
inhibition of growth at 10 µM [7]: 99.2%
inhibition of growth at 10 µM (Malme-3M): 27.5%
inhibition of growth at 10 µM [8]: 23.4%
inhibition of growth at 10 µM (MCF7 [9]): 57.6%
LC50 (concentration killing 50% of cells) (SR [10]): > 100 µM
inhibition of growth at 10 µM (MDA-MB-231): 34%
inhibition of growth at 10 µM [11]: 18.6%
inhibition of growth at 10 µM (SN12C): 22.9%
inhibition of growth at 10 µM [12]: 9.6%
inhibition of growth at 10 µM [13]: 7.71%
inhibition of growth at 10 µM (U-251): 30.3%
inhibition of growth at 10 µM (NCI-H226): 13.5%
inhibition of growth at 10 µM [14]: 51.3%
LC50 [15]: > 100 µM
GI50 [15, 30]: 13.5 µM
TGI [15, 30]: > 100 µM
LC50 (CCRF-CEM): > 100 µM
GI50 (CCRF-CEM; [31]): 3.39 µM
TGI (CCRF-CEM; [31]): 9.55 µM
GI50 [16]: 8.44 µM
LC50 (concentration killing 50% of cells) [16]: 61.4 µM
TGI [16]: 48.6 µM
inhibition of growth at 10 µM (A549 [17]): 42.6%
inhibition of growth at 10 µM [18]: 65%
inhibition of growth at 10 µM (SK-MEL-28): 7.37%
Ka (Calf thymus DNA [19]): 3.39 ×10⁴ /M
Ka (Calf thymus DNA [20]): 1.97 ×10⁴ /M
inhibition of growth at 10 µM [21]: 38.2%
inhibition of growth at 10 µM [22]: 34.8%
GI50 [23]: 6.36 µM
LC50 [23]: 80.6 µM
TGI [23]: 31.7 µM
inhibition of growth at 10 µM (M14): 41.7%
CC50 [24]: > 100 µM
inhibition of growth at 10 µM [25]: 55.5%
inhibition of growth at 10 µM (A498): 29.7%
CC50 [26]: > 100 µM
inhibition of growth at 10 µM [27]: 7.42%
inhibition of growth at 10 µM (T47D): 69.3%
inhibition of growth at 10 µM (SK-MEL-5): 16.6%
inhibition of growth at 10 µM [28]: 16.6%
growth inhibition (GI) (SR [29]): Active
